US20080161232A1, “C5a Receptor Antagonist” (JERINI AG, priority 2005, published 2008)
Read-outs that look alike come from different tables or passages of the source. Starred links: 1 amine or outer side, 2 acyl side, 3 side chain; linkers in the order of their positions; H or OH if unused. Positions of bridges follow the written chain, without caps; N, C: chain ends. Non-standard residues stand in square brackets, D forms with d. Residues, ends and D or L forms follow the SMILES beside them. Groups on a side chain read outwards from the residue. *: point of attachment. Decanoyl(3,6,9-trioxa) = COCCOCCOCC(=O)*; Phe(4-NH2) = Nc1ccc(C[C@H](N)C(=O)O)cc1; Phe(4-Me) = Cc1ccc(C[C@H](N)C(=O)O)cc1; 2Nal = N[C@@H](Cc1ccc2ccccc2c1)C(=O)O; His(τ-Me) = Cn1cnc(C[C@H](N)C(=O)O)c1; Hyp = O=C(O)[C@@H]1C[C@@H](O)CN1; 4Pal = N[C@@H](Cc1ccncc1)C(=O)O; 2Thi = N[C@@H](Cc1cccs1)C(=O)O; Cha = N[C@@H](CC1CCCCC1)C(=O)O; dCha = N[C@H](CC1CCCCC1)C(=O)O; NHCH2CH(OH)CH2OH = OCC(O)CN*; hLeu = CC(C)CC[C@H](N)C(=O)O; Nle = CCCC[C@H](N)C(=O)O; Orn = NCCC[C@H](N)C(=O)O; Pra = C#CC[C@H](N)C(=O)O; Nva = CCC[C@H](N)C(=O)O; CO = O=C([*:1])[*:2]

Biological target: T1, human C5aR(CD88) (Homo sapiens, UniProt P21730)
T1 construct: expressed in transfected cells; host or cells: rat basophilic leukemia cells (RBL)
T1 sequence (P21730 1-350): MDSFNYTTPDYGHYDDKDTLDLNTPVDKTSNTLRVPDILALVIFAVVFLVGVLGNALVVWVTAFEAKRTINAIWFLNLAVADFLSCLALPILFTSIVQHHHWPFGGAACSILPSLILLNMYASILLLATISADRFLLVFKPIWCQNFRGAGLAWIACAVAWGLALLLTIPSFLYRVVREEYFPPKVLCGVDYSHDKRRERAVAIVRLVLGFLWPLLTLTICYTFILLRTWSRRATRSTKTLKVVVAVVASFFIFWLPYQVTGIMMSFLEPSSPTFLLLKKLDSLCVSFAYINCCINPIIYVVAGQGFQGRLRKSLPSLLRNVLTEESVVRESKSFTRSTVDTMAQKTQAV
Test: Determination of the IC50 value in an enzyme release assay (functional assay, antagonistic activity)
Assay type: cell-based
Conditions: for inhibitory activity (in words): functional assay of example 11, noteworthy = IC50 less than 200 nM

[1] = antagonistic activity, IC50 group in enzyme release assay, RBL cells expressing human C5aR(CD88), read-out: activity (group)

Row | IC50 [1] [nM] | inhibitory activity (in words) | Compound | further results
1 | 50 to 200 | – | CCCC[C@@H]1NC(=O)[C@H](Cc2c[nH]c3ccccc23)NC(=O)[C@@H](CC2CCCCC2)NC(=O)[C@@H]2CCCN2C(=O)[C@@H](NC(=O)[C@H](Cc2ccccc2)NC(=O)CON=CC(O)C(O)C(O)C(O)CO)CCCNC1=O (single isomer, unassigned) [Compound 334, Fck-Phe-[Orn-Pro-cha-Trp-Nle]] | –
2 | – | – | CC(=O)N[C@@H](Cc1ccccc1)C(=O)N[C@@H](CCCCN)C(=O)N[C@@H](C)C(=O)N[C@@H](CC1CCCCC1)C(=O)N[C@@H](C)C(=O)N[C@@H](CC(C)C)C(=O)N[C@H](C)C(=O)N[C@@H](Cc1ccc(O)cc1)C(=O)O [Ac-Phe-Lys-Ala-Cha-Ala-Leu-ala-Tyr-OH, reference compound] (Ac-FKA[Cha]AL[dA]Y-OH) | IC50 (functional assay as used in this application, values in text, read-out: IC50): 1300 nM
3 | – | noteworthy inhibitory activity | COCCOCCOCC(=O)O[C@@H]1C[C@H]2C(=O)N[C@H](CC3CCCCC3)C(=O)N[C@@H](Cc3c[nH]c4ccccc34)C(=O)N[C@@H](Cc3ccccc3)C(=O)NCCC[C@H](NC(=O)[C@H](Cc3ccccc3)NC(C)=O)C(=O)N2C1 [Ac-Phe-[Orn-Hyp(COCH2OCH2CH2OCH2CH2OCH3)-cha-Trp-Phe]] (Ac-F[Orn][Hyp](Decanoyl(3,6,9-trioxa))[dCha]WF; lactam 2-C) | –
4 | – | noteworthy inhibitory activity | CC(=O)N[C@@H](Cc1ccccc1)C(=O)N[C@H]1CCCNC(=O)[C@H](Cc2ccncc2)NC(=O)[C@H](Cc2c[nH]c3ccccc23)NC(=O)[C@@H](CC2CCCCC2)NC(=O)[C@@H]2CCCN2C1=O [Ac-Phe-[Orn-Pro-cha-Trp-Ppa]] (Ac-F[Orn]P[dCha]W[4Pal]; lactam 2-C) | –
5 | – | noteworthy inhibitory activity | CC(=O)N[C@@H](Cc1ccccc1)C(=O)N[C@H]1CCCNC(=O)[C@H](Cc2ccccc2)NC(=O)[C@H](Cc2c[nH]c3ccccc23)NC(=O)[C@@H](CC2CCCCC2)NC(=O)[C@H](CO)NC1=O [Ac-Phe-[Orn-Ser-cha-Trp-Phe]] (Ac-F[Orn]S[dCha]WF; lactam 2-C) | –
6 | 50 to 200 | – | CCCC[C@@H]1NC(=O)[C@H](Cc2c[nH]c3ccccc23)NC(=O)[C@@H](CC2CCCCC2)NC(=O)[C@@H]2C[C@@H](OC(=O)COCCOCCOC)CN2C(=O)[C@@H](NC(=O)[C@H](Cc2ccccc2)NC(C)=O)CCCNC1=O [Compound 5, Ac-Phe-[Orn-Hyp(COCH2OCH2CH2OCH2CH2OCH3)-cha-Trp-Nle]] (Ac-F[Orn][Hyp](Decanoyl(3,6,9-trioxa))[dCha]W[Nle]; lactam 2-C) | –
7 | 50 to 200 | – | CCCC[C@@H]1NC(=O)[C@H](Cc2c[nH]c3ccccc23)NC(=O)[C@@H](CC2CCCCC2)NC(=O)[C@@H]2C[C@@H](OC(=O)NCC(O)CO)CN2C(=O)[C@@H](NC(=O)[C@H](Cc2ccccc2)NC(C)=O)CCCNC1=O (stereo partly drawn) [Compound 6, Ac-Phe-[Orn-Hyp(CONH—CH2CH(OH)—CH2OH)-cha-Trp-Nle]] (Ac-F[Orn][Hyp]([CO-NHCH2CH(OH)CH2OH])[dCha]W[Nle]; lactam 2-C) | –
8 | 200 to 2000 | – | CC(=O)N[C@@H](Cc1ccccc1)C(=O)N[C@H]1CCCNC(=O)[C@H](CCCNC2=NCCN2)NC(=O)[C@H](Cc2c[nH]c3ccccc23)NC(=O)[C@@H](CC2CCCCC2)NC(=O)[C@@H]2CCCN2C1=O [Compound 7, Ac-Phe-[Orn-Pro-cha-Trp-Arg(CH2CH2)]] | –
9 | 200 to 2000 | – | CC(=O)N[C@@H](Cc1ccccc1)C(=O)N[C@H]1CCCNC(=O)[C@H](CCCNC(N)=O)NC(=O)[C@H](Cc2c[nH]c3ccccc23)NC(=O)[C@@H](CC2CCCCC2)NC(=O)[C@@H]2CCCN2C1=O [Compound 10, Ac-Phe-[Orn-Pro-cha-Trp-Cit], reference compound] | –
10 | 20 to 50 | noteworthy inhibitory activity | CC(=O)N[C@@H](Cc1ccccc1)C(=O)N[C@H]1CCCNC(=O)[C@H](Cc2ccc(N)cc2)NC(=O)[C@H](Cc2c[nH]c3ccccc23)NC(=O)[C@@H](CC2CCCCC2)NC(=O)[C@@H]2CCCN2C1=O [Compound 14, Ac-Phe-[Orn-Pro-cha-Trp-Paf]] (Ac-F[Orn]P[dCha]W[Phe(4-NH2)]; lactam 2-C (inferred)) | IC50 (functional assay of example 11, values in text, read-out: IC50): 30 nM
11 | 50 to 200 | noteworthy inhibitory activity | CC(=O)N[C@@H](Cc1ccccc1)C(=O)N[C@H]1CCCNC(=O)[C@H](Cc2cn(C)cn2)NC(=O)[C@H](Cc2c[nH]c3ccccc23)NC(=O)[C@@H](CC2CCCCC2)NC(=O)[C@@H]2CCCN2C1=O [Compound 20, Ac-Phe-[Orn-Pro-cha-Trp-Ecr]] (Ac-F[Orn]P[dCha]W[His(τ-Me)]; lactam 2-C) | –
12 | > 2000 | – | CC(=O)N[C@@H](Cc1ccccc1)C(=O)N[C@H]1CCCNC(=O)[C@H](CCCCN)NC(=O)[C@H](Cc2c[nH]c3ccccc23)NC(=O)[C@@H](CC2CCCCC2)NC(=O)[C@@H]2CCCN2C1=O [Compound 22] (Ac-F[Orn]P[dCha]WK; lactam 2-C (inferred)) | –
13 | 50 to 200 | without significant loss of activity | CSCC[C@@H]1NC(=O)[C@H](Cc2c[nH]c3ccccc23)NC(=O)[C@@H](CC2CCCCC2)NC(=O)[C@@H]2CCCN2C(=O)[C@@H](NC(=O)[C@H](Cc2ccccc2)NC(C)=O)CCCNC1=O [Compound 29, Ac-Phe-[Orn-Pro-cha-Trp-Met]] (Ac-F[Orn]P[dCha]WM; lactam 2-C) | inhibitory activity (in words) (listed as Ac-Phe-[Orn-Pro-cha-Trp-Met]): noteworthy inhibitory activity
14 | 10 to 20 | without significant loss of activity | CCC[C@@H]1NC(=O)[C@H](Cc2c[nH]c3ccccc23)NC(=O)[C@@H](CC2CCCCC2)NC(=O)[C@@H]2CCCN2C(=O)[C@@H](NC(=O)[C@H](Cc2ccccc2)NC(C)=O)CCCNC1=O [Compound 31, Ac-Phe-[Orn-Pro-cha-Trp-Nva]] (Ac-F[Orn]P[dCha]W[Nva]; lactam 2-C) | inhibitory activity (in words) (listed as Ac-Phe-[Orn-Pro-cha-Trp-Nva]): noteworthy inhibitory activity
15 | 20 to 50 | without significant loss of activity | CC(=O)N[C@@H](Cc1ccccc1)C(=O)N[C@H]1CCCNC(=O)[C@H](CCC(C)C)NC(=O)[C@H](Cc2c[nH]c3ccccc23)NC(=O)[C@@H](CC2CCCCC2)NC(=O)[C@@H]2CCCN2C1=O [Compound 32, Ac-Phe-[Orn-Pro-cha-Trp-Hle]] (Ac-F[Orn]P[dCha]W[hLeu]; lactam 2-C) | inhibitory activity (in words) (listed as Ac-Phe-[Orn-Pro-cha-Trp-Hle]): noteworthy inhibitory activity
16 | 20 to 50 | without significant loss of activity | CCSC[C@@H]1NC(=O)[C@H](Cc2c[nH]c3ccccc23)NC(=O)[C@@H](CC2CCCCC2)NC(=O)[C@@H]2CCCN2C(=O)[C@@H](NC(=O)[C@H](Cc2ccccc2)NC(C)=O)CCCNC1=O [Compound 34, Ac-Phe-[Orn-Pro-cha-Trp-Ebd]] (Ac-F[Orn]P[dCha]WC(Et); lactam 2-C) | inhibitory activity (in words) (listed as Ac-Phe-[Orn-Pro-cha-Trp-Ebd]): noteworthy inhibitory activity
17 | 5 to 10 | without significant loss of activity | C#CC[C@@H]1NC(=O)[C@H](Cc2c[nH]c3ccccc23)NC(=O)[C@@H](CC2CCCCC2)NC(=O)[C@@H]2CCCN2C(=O)[C@@H](NC(=O)[C@H](Cc2ccccc2)NC(C)=O)CCCNC1=O [Compound 35, Ac-Phe-[Orn-Pro-cha-Trp-Eag]] (Ac-F[Orn]P[dCha]W[Pra]; lactam 2-C) | inhibitory activity (in words) (listed as Ac-Phe-[Orn-Pro-cha-Trp-Eag]): noteworthy inhibitory activity
18 | 20 to 50 | without significant loss of activity | CC(=O)N[C@@H](Cc1ccccc1)C(=O)N[C@H]1CCCNC(=O)[C@H](Cc2ccc(C)cc2)NC(=O)[C@H](Cc2c[nH]c3ccccc23)NC(=O)[C@@H](CC2CCCCC2)NC(=O)[C@@H]2CCCN2C1=O [Compound 36, Ac-Phe-[Orn-Pro-cha-Trp-Pmf]] (Ac-F[Orn]P[dCha]W[Phe(4-Me)]; lactam 2-C) | inhibitory activity (in words) (listed as Ac-Phe-[Orn-Pro-cha-Trp-Pmf]): noteworthy inhibitory activity
19 | 50 to 200 | without significant loss of activity | CC(=O)N[C@@H](Cc1ccccc1)C(=O)N[C@H]1CCCNC(=O)[C@H](Cc2ccc3ccccc3c2)NC(=O)[C@H](Cc2c[nH]c3ccccc23)NC(=O)[C@@H](CC2CCCCC2)NC(=O)[C@@H]2CCCN2C1=O [Compound 37, Ac-Phe-[Orn-Pro-cha-Trp-2Ni]] (Ac-F[Orn]P[dCha]W[2Nal]; lactam 2-C) | inhibitory activity (in words) (listed as Ac-Phe-[Orn-Pro-cha-Trp-2Ni]): noteworthy inhibitory activity
20 | 20 to 50 | without significant loss of activity | CC(=O)N[C@@H](Cc1ccccc1)C(=O)N[C@H]1CCCNC(=O)[C@H](Cc2cccs2)NC(=O)[C@H](Cc2c[nH]c3ccccc23)NC(=O)[C@@H](CC2CCCCC2)NC(=O)[C@@H]2CCCN2C1=O [Compound 38, Ac-Phe-[Orn-Pro-cha-Trp-Thi]] (Ac-F[Orn]P[dCha]W[2Thi]; lactam 2-C) | inhibitory activity (in words) (listed as Ac-Phe-[Orn-Pro-cha-Trp-Thi]): noteworthy inhibitory activity
